Laboratory results reported in patent US20240057598A1, “USE OF 2-AMINO-3-METHYLHEXANOIC ACID AS PLANT IMMUNITY INDUCER” (NANJING AGRICULTURAL UNIVERSITY, priority 2020, published 2024).

How the values were obtained:
wheat [1] = assay: Induced resistance of wheat to high temperature stress; assay type: in vivo; conditions: for Dry weight of overground part / Fresh weight of overground part / Heat injury index: 45° C. 9 h, 7 days recovery
Description: […] A blank control was additionally set, and 0.02% Tween 20 was added as a surfactant. 4 groups of repetitions were set for each concentration, and a normal temperature blank control was set at the same time. Ryegrass seeds were weighed according to 0.8 g per pot, sowed in a pot with a diameter of 8.5 cm, and planted in a greenhouse at a temperature of 25° C., a humidity of 60%-70%, and a light intensity of 200 μmolm^−2s^−1 (12 h light/12 h dark). On the 8th day of the seedling stage, the ryegrass was sprayed with the 2-amino-3-methylhexanoic acid solutions on the leaves twice in 24 h. 24 h after the second treatment, the plants were transferred to a light incubator at a temperature of 45° C. for conducting high temperature stress treatment for 12 h, and then the plants were taken out and transferred to a greenhouse at a temperature of 25° C. for 7 days of recovery. The injured conditions of the plants were observed and counted, and the heat injury grade was calculated. […] After the counting, the fresh weight of the aboveground part of the plant was weighed, and then the aboveground part was baked in an 85° C. oven for 48 h to determine the dry weight.
Wheat seeds were weighed according to 1.5 g per pot, and planted by a method and under conditions the same as those of ryegrass. When the wheat grew for two weeks in the seedling stage, the experiment was conducted. High temperature stress was conducted for 9 h, and the treatment method and subsequent statistical indexes were the same as those of the ryegrass mentioned above.

[2] = tested on: tea "Baiye 1" cutting seedlings; assay: Effect on amino acid content of tea leaves at normal temperature; assay type: in vivo; design: Amino acid content of tea leaves: unit not given here; conditions: 10 nM, room temperature
Description: At normal temperature, the effect of 2-amino-3-methylhexanoic acid on tea quality was determined using “Baiye 1” cutting seedlings as the tea trees tested. Tea seedlings with relatively consistent growth were transplanted into a plastic pot with a diameter of 18 cm and placed in a greenhouse at a temperature of 25° C. and a humidity of 60%-70% for adaptive growth for about a week. Two concentrations of 0 and 10 nM were set in the experiment, and 0.02% Tween 20 was added as a surfactant. 1 week after transplanting, the stems and leaves of the tea seedlings were sprayed once every 24 h, twice in total. After spray, the tea leaves were placed in a greenhouse at 25° C., and samples were taken on the 1st, 3rd, 5th and 7th days to determine the total amino acid content of one leaf and one bud at the top of tea leaves.

wheat [3] = assay: Induced resistance of wheat to drought stress (25% PEG-6000); assay type: in vivo; conditions: for Drought injury index / Dry weight Overground part / Dry weight Underground part / Fresh weight Overground part / Fresh weight Underground part / Length of root: wheat, 25% PEG-6000 6 days, 7 days recovery
Description: Wheat was cultured in water in a 6-mesh sieve used as a container according to 50 grains per sieve, and ½ Hoagland nutrient solution was changed every three days. When the wheat grew to the stage of two leaves and one bud, the leaf surface was sprayed with 2-amino-3-methylhexanoic acid solutions, the concentration of the 2-amino-3-methylhexanoic acid was 0, 100 and 1,000 nM, and 0.02% Tween 20 was added as a surfactant. After two days of continuous spraying, the water culture nutrient solution was replaced with ½ Hoagland nutrient solution containing 25% PEG-6000 on the 3rd day for stress treatment. After 6 days of drought stress, rehydration treatment was conducted. After 7 days of recovery growth in a normal nutrient solution, the drought index was observed and determined, and the root length and biomass were determined.
The performance characteristics of drought injury of leaves are similar to those of salt injury. The drought injury rate and the drought injury index were introduced by using the evaluation indexes of salt injury. The formula for calculating the drought injury index is as follows, and the grading standard of drought injury is shown in Table 11.

Bacillus subtilis = conditions: cited from earlier work
Pseudomonas aeruginosa = conditions: cited from earlier work
Aerobacter aerogenes = conditions: cited from earlier work
Brevibacterium helvolum = conditions: cited from earlier work
P. fluorescens = conditions: cited from earlier work
S. marcescens = conditions: cited from earlier work
[4] = 1,000 nM, wheat seedlings, drought stress

Compound: CCCC(C)C(N)C(=O)O (stereo not drawn) [2-amino-3-methylhexanoic acid]
- Dry weight of overground part (wheat [1]; 10 nM): 0.72 ± 0.04bc g
- Fresh weight of overground part (wheat [1]; 10 nM): 1.76 ± 0.13c g
- Heat injury index (wheat [1]; 10 nM): 85%
- Dry weight of overground part (wheat [1]; 100 nM): 0.75 ± 0.04c g
- Fresh weight of overground part (wheat [1]; 100 nM): 1.87 ± 0.12c g
- Heat injury index (wheat [1]; 100 nM): 75%
- Dry weight of overground part (wheat [1]; 1,000 nM): 0.78 ± 0.05bc g
- Fresh weight of overground part (wheat [1]; 1,000 nM): 2.11 ± 0.30c g
- Heat injury index (wheat [1]; 1,000 nM): 65%
- Decrease of heat injury index (wheat [1]; 10,000 nM): 40%
- Dry weight of aboveground part higher than untreated control group (wheat [1]; 10,000 nM): 31.94%
- Fresh weight of aboveground part higher than untreated control group (wheat [1]; 10,000 nM): 102.84%
- Dry weight of overground part (wheat [1]; 10,000 nM): 0.95 ± 0.04ab g
- Fresh weight of overground part (wheat [1]; 10,000 nM): 3.57 ± 0.50b g
- Heat injury index (wheat [1]; 10,000 nM): 40%
- Increase of amino acid content compared with control ([2]; 3rd day): 14%
- Increase of amino acid content compared with control ([2]; 5th day): 26%
- Amino acid content of tea leaves ([2]; day 1): 2.13
- Amino acid content of tea leaves ([2]; day 3): 2.44
- Amino acid content of tea leaves ([2]; day 5): 2.69
- Amino acid content of tea leaves ([2]; day 7): 2.08
- Drought injury index (wheat [3]; 100 nM): 50%
- Dry weight Overground part (wheat [3]; 100 nM): 0.79 ± 0.01a
- Dry weight Underground part (wheat [3]; 100 nM): 0.34 ± 0.02a
- Fresh weight Overground part (wheat [3]; 100 nM): 6.71 ± 0.69b
- Fresh weight Underground part (wheat [3]; 100 nM): 3.48 ± 0.40a
- Length of root (wheat [3]; 100 nM): 13.83 ± 0.26b
- Decrease of drought index (wheat [3]; [4]): 36%
- Increase of dry weight of aboveground part (wheat [3]; [4]): 10.00%
- Increase of dry weight of underground part (wheat [3]; [4]): 18.75%
- Increase of fresh weight of aboveground part (wheat [3]; [4]): 35.82%
- Increase of fresh weight of underground part (wheat [3]; [4]): 34.33%
- Increase of root length compared with control group (wheat [3]; [4]): 6%
- Drought injury index (wheat [3]; 1,000 nM): 30%
- Dry weight Overground part (wheat [3]; 1,000 nM): 0.88 ± 0.05a
- Dry weight Underground part (wheat [3]; 1,000 nM): 0.38 ± 0.02a
- Fresh weight Overground part (wheat [3]; 1,000 nM): 8.72 ± 0.59a
- Fresh weight Underground part (wheat [3]; 1,000 nM): 4.46 ± 0.01a
- Length of root (wheat [3]; 1,000 nM): 14.50 ± 0.27a
- Inhibitory effect (Bacillus subtilis): obvious inhibitory effect
- Inhibitory effect (Pseudomonas aeruginosa): slight inhibitory effect
- Inhibitory effect (Aerobacter aerogenes): no inhibitory effect
- Inhibitory effect (Brevibacterium helvolum): no inhibitory effect
- Inhibitory effect (P. fluorescens): no inhibitory effect
- Inhibitory effect (S. marcescens): no inhibitory effect
